Square brackets hold non-standard residues; d marks the D form. Ends that are not written are not given here. pGlu = O=C1CC[C@@H](C(=O)O)N1
Columns and labels:
[1] = test system: panelists (salt perception); assay: Increased Salt Perception Protocol (descriptive sensory panel); format: in vivo, human; details: for Mean salt perception in mouth: scale anchored to 0.35% salt reference = 5.0; for Mean salt perception after expectoration: re-tasting of salt reference (0.35% salt, intensity 5.0)
Description: Descriptive Profiles (Flavor and Chemical Feeling Factors) of five use levels of a pGlu-Val-Leu flavor composition were determined. The five use levels were as follows:
Data was collected for the flavor and chemical feeling factors of the product in mouth for each of the five use levels according to the following protocol:
1. Each panelist tasted a salt reference (0.35% salt solution) with a reference salt intensity of 5.0 which provided a baseline for each panelist's Sensory Spectrum for salt intensity.
2. Each panelist tasted a test sample (0.1 ppb, 0.5 ppb, 1.0 ppb, 10.0 ppb or 40.0 ppb all in 0.2% NaCl solution). Only one sample was tasted per session.
3. Each panelist re-tasted the salt reference (5.0 intensity) and rated it for salt intensity as well as any other basic taste, chemical feeling factor, or aromatic perceived. Thus, any increased salt perception as a result of the test sample would be determined, as well as any other perceptions present. Return to Baseline Protocol
The test samples were formulated as follows: […]

[2] = test system: panelists (salt perception); assay: Return to Baseline Protocol (saltiness aftertaste, sensory panel); format: in vivo, human; details: salt reference re-tasted at 1 minute intervals until intensity 5.0
Description: After evaluating the sample for salt and other perceptions (step 3 above), each panelist re-tasted the salt reference (5.0 intensity) at 1 minute intervals until their perception of the saltiness intensity of the reference returned to 5.0. Each panelist recorded salt intensity at each interval and took qualitative notes on other perceptions seen in aftertaste.

Substance: [pGlu]-Val-Leu
- Mean salt perception in mouth ([1]; 0.1 ppb peptide in 0.2% NaCl solution): 2.3
- Mean salt perception after expectoration ([1]; 0.1 ppb sample): 6.8
- perception of salt in-mouth as concentration increased ([1]; 0.1 to 40.0 ppb in 0.2% NaCl solution): did not significantly increase
- Mean salt perception in mouth ([1]; 0.5 ppb peptide in 0.2% NaCl solution): 2.8
- Mean salt perception after expectoration ([1]; 0.5 ppb sample): 6.4
- Mean salt perception in mouth ([1]; 1.0 ppb peptide in 0.2% NaCl solution): 2.3
- Mean salt perception after expectoration ([1]; 1.0 ppb sample): 7.5
- Mean salt perception in mouth ([1]; 10.0 ppb peptide in 0.2% NaCl solution): 3.1
- Mean salt perception after expectoration ([1]; 10.0 ppb sample): 8.2
- Mean salt perception in mouth ([1]; 40.0 ppb peptide in 0.2% NaCl solution): 2.8
- Mean salt perception after expectoration ([1]; 40.0 ppb sample): 8.3
- Salt perception after expectoration ([1]; all samples (0.1 to 40.0 ppb), versus reference intensity 5.0): increased
- Mean time needed to return to baseline ([2]; 0.1 ppb sample): 7.6 min
- Mean time needed to return to baseline ([2]; 0.5 ppb sample): 9.5 min
- Mean time needed to return to baseline ([2]; 1.0 ppb sample): 8.7 min
- Mean time needed to return to baseline ([2]; 10.0 ppb sample): 8.6 min
